Consider 9 compounds from PMC9308172 (Journal of medicinal chemistry, 2017).

In assay [1] the target is T1, M2TMWT (Influenza A virus, UniProt P0DOF5). As to conditions: cited from earlier work.
Assay [2] concerns A/California/07/2009 (H1N1) M2: N31. Conditions: cited from earlier work.
The target of assay [3] is T1, M2TMWT. Format: binding.

Where two headings read alike, the source gives them in different places.

T1 sequence (P0DOF5 22-46 limits assumed): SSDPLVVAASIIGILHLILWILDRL

For `NC12CC3CC(CC(C3)C1)C2` [Compound 1, Amantadine, reference compound], in assay [1], the TΔS is 1.11 ± 0.521 kcal/mol, the ΔG was -7.77 ± 0.141 kcal/mol and the ΔH is -6.661 ± 0.5 kcal/mol. In assay [2], the “% block after 3 min” value is 14 ± 2 (100 μM; 26) %.
On to `NC1C2CC3CC(C2)CC1C3` (stereo not drawn) [Compound 2], for which, in assay [1], the TΔS is 0.93 ± 0.44 kcal/mol, the ΔG was -7.959 ± 0.129 kcal/mol and the ΔH was -7.029 ± 0.421 kcal/mol. Moreover, in assay [2], the “% block after 3 min” value is listed as 13 ± 3 (100 μM; 2) % and the “% block after 30 min” value is 16 (100 μM; 1) %.
For the compound `CC1(N)C2CC3CC(C2)CC1C3` (stereo not drawn) [Compound 3], in assay [1], the TΔS was 1.51 ± 0.289 kcal/mol, the ΔG is -8.31 ± 0.129 kcal/mol and the ΔH was -6.79 ± 0.261 kcal/mol.
On to `CCC1(N)C2CC3CC(C2)CC1C3` (stereo not drawn) [Compound 4], for which, in assay [1], the TΔS was 1.38 ± 0.251 kcal/mol, the ΔG was -8.521 ± 0.129 kcal/mol and the ΔH is -7.139 ± 0.21 kcal/mol.
As to `CCCC1(N)C2CC3CC(C2)CC1C3` (stereo not drawn) [Compound 5], in assay [1], the TΔS was 0.932 ± 0.347 kcal/mol, the ΔG is -8.707 ± 0.165 kcal/mol and the ΔH is -7.796 ± 0.308 kcal/mol. Further, in assay [2], the “% block after 3 min” value is 0 ± 5 (100 μM; 2) % and the “% block after 30 min” value is 9 ± 10 (100 μM, 3) %.
In the case of `C1CNC2(C1)C1CC3CC(C1)CC2C3` (stereo not drawn) [Compound 6], in assay [1], the TΔS was 3.97 ± 0.614 kcal/mol, the ΔG is -9.109 ± 0.44 kcal/mol and the ΔH is -5.136 ± 0.421 kcal/mol.
As to `CN1CCCC12C1CC3CC(C1)CC2C3` (stereo not drawn) [Compound 7], in assay [1], the TΔS is 4.46 ± 0.361 kcal/mol, the ΔG is -8.279 ± 0.229 kcal/mol and the ΔH was -3.819 ± 0.28 kcal/mol.
Take `CC12CC3CC(CC(C3)C13CCCN3)C2` (stereo not drawn) [Compound 8, 1′-Methylspiro[pyrrolidine-2,2′-adamantane]]: in assay [1], the TΔS was 3 ± 0.37 kcal/mol, the ΔG was -8.081 ± 0.201 kcal/mol and the ΔH is -5.079 ± 0.311 kcal/mol.
In turn, `NC1(C23CC4CC(CC(C4)C2)C3)CCCC1` [Compound 9] yielded a ΔG in assay [3] of -6.637 ± 0.189 kcal/mol.
